# Results published in patent publication US9737616B2, “Compounds and methods for the treatment of ERB B2/NEU positive diseases” (Bio-Thera Solutions, Ltd., Co., priority 2012, dated 2017).
# Columns and labels:
# tubulin = experiment: HTS-Tubulin Polymerization Assay Kit, tubulin polymerization in vitro; format: biochemical; details: for inhibition of tubulin polymerization compared with the PBS buffer: Example 6, 1 μM stock of test substance, 4 mg/mL tubulin, 37° C., 405 nm
# Procedure: The effect of 3AA-MDC, 206-3AA-MDC and the metabolites (Cys-3AA-MDC and Lys-mcc-MDC) of prodrug antibody maytansinoid conjugates on the tubulin polymerization in vitro was assessed by HTS-Tubulin Polymerization Assay Kit (BK004P, Cytoskeleton, Inc., USA). According to the instruction of kit, pre-warm the 96-well plate to 37° C. for 30 min prior to starting the assay. At the same time, the spectrophotometer (SpectraMax, Molecular Devices, USA) was set as follow: wavelength, 405 nm; temperature, 37° C.; Kinetic, 31 cycles of 1 reading per minute. Make cold G-PEM buffer (990 μL General Tubulin Buffer+10 μL GTP Stock) and keep it on ice. Prepare 4 mg/mL tubulin, 1 μM L-3AA-MDC (N2′-deacetyl-N2′-(6-maleimido-1-oxo-hexyl)maytansine), 1 μM 206-3AA-MDC, 1 μM cys-3AA-MDC, 1 μM lys-mcc-MDC, 100 μM Paclitaxel, and 100 μM Nocodazole. Add 10 μL G-PEM, 3AA-MDC, 206-3AA-MDC, cys-3AA-MDC, lys-mcc-MDC, Paclitaxel, Nocodazole into the wells, and then add 100 μL 4 mg/ml tubulin to each well. Immediately place the plate into the spectrophotometer and start recording using the kinetic setup described above. […] Nocodazole, the tubulin polymerization inhibitor, was set as a negative control. The metabolite Cys-3AA-MDC was prepared by reaction of 3AA-MDC with cysteine under the base DIEA in CH2Cl2. […] The metabolite Lys-MCC-MDC was prepared by reaction of SMCC-MDC with lysine under the base DIEA in DMF.
# The effect of 3AA-MDC and related metabolites on the tubulin polymerization in vitro was assessed by HTS-Tubulin Polymerization Assay Kit (BK004P, Cytoskeleton, Inc., USA). According to the instruction of kit, pre-warm the 96-well plate to 37° C. for 30 min prior to starting the assay. At the same time, the spectrophotometer (SpectraMax, Molecular Devices, USA) was set as follow: wavelength, 405 nm; temperature, 37° C.; Kinetic, 31 cycles of 1 reading per minute. Make cold G-PEM buffer (990 μL General Tubulin Buffer+10 μL GTP Stock) and keep it on ice. Prepare 4 mg/ml tubulin, 200 nM L-3AA-MDC (N2′-deacetyl-N2′-(6-maleimido-1-oxo-hexyl)maytansine), or related compounds cys-3AA-MDC, or lys-mcc-MDC, 100 μM Paclitaxel, 100 μM Nocodazole, and 1 μM 206-3AA-MDC (3AA-MDC-antibody). Add 10 μL G-PEM, 3AA-MDC, Paclitaxel, Nocodazole and 206-3AA-MDC or related metabolites into the wells, and then add 100 μL 4 mg/ml tubulin to each well. Immediately place the plate into the spectrophotometer and start recording using the kinetic setup described above.
# [1] = test system: human acute lymphoblastic leukemia line C.E.M.; details: Wolpert-DeFillippes et al. 1975; cited from earlier work
structure (smiles),measurement,setting,value
CC(=O)O[C@H]1C(=O)[C@@]2(C)[C@H]([C@H](OC(=O)c3ccccc3)[C@]3(O)C[C@H](OC(=O)[C@H](O)[C@@H](NC(=O)c4ccccc4)c4ccccc4)C(C)=C1C3(C)C)[C@]1(OC(C)=O)CO[C@@H]1C[C@@H]2O [Paclitaxel],"relative activity of tubulin polymerization, enhanced","tubulin; Example 7, 100 μM stock",about 3 fold
COc1cc2cc(c1Cl)N(C)C(=O)C[C@H](OC(=O)[C@H](C)N(C)C(=O)CCSC1CC(=O)N(CC3CCC(C(=O)NCCCC[C@H](N)C(=O)O)CC3)C1=O)[C@]1(C)O[C@H]1[C@H](C)[C@@H]1C[C@@](O)(NC(=O)O1)[C@H](OC)/C=C/C=C(\C)C2 (stereo partly drawn) [Lys-mcc-MDC],inhibition of tubulin polymerization compared with the PBS buffer,tubulin,more significantly inhibited
COC(=O)Nc1nc2ccc(C(=O)c3cccs3)cc2[nH]1 [Nocodazole],"relative activity of tubulin polymerization, decreased","tubulin; Example 7, 100 μM stock",2.5 fold
"COc1cc2cc(c1Cl)N(C)C(=O)C[C@H](OC(=O)[C@H](C)N(C)C(=O)CCCCCN1C(=O)C=CC1=O)[C@]1(C)OC1[C@H](C)[C@@H]1C[C@@](O)(NC(=O)O1)[C@H](OC)/C=C/C=C(\C)C2 (stereo partly drawn) [3AA-MDC, N2′-deacetyl-N2′-(6-maleimido-1-oxo-hexyl)-maytansine]",inhibition of tubulin polymerization compared with the PBS buffer,tubulin,more significantly inhibited
same,inhibition of tubulin polymerization,"tubulin; Example 7, 200 nM stock, FIG. 1",more significantly inhibited
COc1cc2cc(c1Cl)N(C)C(=O)C[C@H](OC(=O)[C@H](C)N(C)C(C)=O)[C@]1(C)O[C@H]1[C@H](C)[C@@H]1C[C@@](O)(NC(=O)O1)[C@H](OC)/C=C/C=C(\C)C2 [Maytansine],"inhibitory concentration, as low as",[1],10^−7 µg/mL
